Results as given in patent publication US11191744B2, “Pharmaceutical active ingredient and use thereof, in particular for the prevention and treatment of metabolic disorders in humans and animals” (VALBIOTIS, priority 2017, dated 2021).
Where “and” joins values, the source holds several entries; their conditions need not be identical. Equal entries are not always repeated.

How the values were obtained:
Type in all cases: in vivo
[1] = system: db/db mice; experiment: Fasting serum triglycerides in db/db mice after 6 weeks of treatment
Protocol: (§1) The composition was also compared to metformin, one of the main pharmaceutical molecules prescribed for the treatment of type 2 diabetes.
(§2) Experiments were performed on db/db mice, a model mimicking the characteristics of type 2 diabetes in humans (Roesler W J et al., Mol Cell Biochem 1990; 92(2):99-106). These mice are insulin-resistant, hypertriglyceridemic, and glucose intolerant. They very quickly develop pre-diabetes, a type 2 diabetes and then NASH.
The experimental time for the trial was […] with a 1 week run-in followed by 6 weeks of treatment. The male mice were 6 weeks old at the start of treatment. The (1S,3R,4R,5R)-3-{[(2E)-3-(3,4-dihydroxyphenyl)-2-propenoyl]oxy}-1,4,5-trihydroxycyclohexanecarboxylic acid alone, the methyl (2S,3E,4S)-4-{2-[2-(3,4-dihydroxyphenyl)ethoxy]-2-oxoethyl}-3-ethylidene-2-(β-D-glucopyranosyloxy)-3,4-dihydro-2H-pyran-5-carboxylate alone, and the mixture of these two molecules in a ratio of 1/4.65 have been tested and compared with metformin. These compositions were directly integrated into the diet of rodents, thus ensuring large-scale use, with injections, for example, intravenous, being limited to a small number given their mode of administration. […]

[2] = system: db/db mice; experiment: Fasting insulinemia in db/db mice after 6 weeks of treatment; conditions: for Median values of insulinemia after 6 weeks of treatment: male db/db mice, fasted 6 h, compositions in the diet; for median insulinemia compared with CONTROL (in words): db/db mice, after 6 weeks of treatment
Protocol: as §1, §2
FIG. 1 illustrates the evolution of insulinemia and glycemia (glucose) over time in this model (Joost H G et al., Animal Models in Diabetes Research, Humana Press). As for humans, the rise in glycemia is initially accompanied by an increase in insulinemia (associated with insulin resistance), evidence of a pancreas still able to secrete insulin, then a decrease, reflecting functional degeneration of the pancreas, and thus progression of type 2 diabetes with the need for insulin therapy (Kobayashi K et al., Metabolism: Clinical and experimental 2,000; 49:22-31 Tao H et al Nat Med 2014; 20(11):1263-1269).
(§3) The experimental time for the trial was […] with a 1 week run-in followed by 6 weeks of treatment. The male mice were 6 weeks old at the start of treatment. The (1S,3R,4R,5R)-3-{[(2E)-3-(3,4-dihydroxyphenyl)-2-propenoyl]oxy}-1,4,5-trihydroxycyclohexanecarboxylic acid alone, the methyl (2S,3E,4S)-4-{2-[2-(3,4-dihydroxyphenyl)ethoxy]-2-oxoethyl}-3-ethylidene-2-(β-D-glucopyranosyloxy)-3,4-dihydro-2H-pyran-5-carboxylate alone, and the mixture of these two molecules in a ratio of 1/4.65 have been tested and compared with metformin. These compositions were directly integrated into the diet of rodents, thus ensuring large-scale use, with injections, for example, intravenous, being limited to a small number given their mode of administration.
(§4) After randomization by weight and fasting glycemia, the animals were divided into the following groups: • Control (n=15): CONTROL; • Metformin (n=12, 0.2% of the diet): MET; • (1S,3R,4R,5R)-3-{[(2E)-3-(3,4-dihydroxyphenyl)-2-propenoyl]oxy}-1,4,5-trihydroxycyclohexanecarboxylic acid (n=12, 0.026% of the diet): V63X35; • The methyl (2S,3E,4S)-4-{2-[2-(3,4-dihydroxyphenyl)ethoxy]-2-oxoethyl}-3-ethylidene-2-(β-D-glucopyranosyloxy)-3,4-dihydro-2H-pyran-5-carboxylate (n=11, 0.12% of diet): V63X54; • The (1S,3R,4R,5R)-3-{[(2E)-3-(3,4-dihydroxyphenyl)-2-propenoyl]oxy}-1,4,5-trihydroxycyclohexanecarboxylic acid+methyl (2S,3E,4S)-4-{2-[2-(3,4-dihydroxyphenyl)ethoxy]-2-oxoethyl}-3-ethylidene-2-(β-D-glucopyranosyloxy)-3,4-dihydro-2H-pyran-5-carboxylate (n=11, respectively 0.026% and 0.12% of the feed): V63,000.
(§5) Experimental evaluations performed on an empty stomach (6 h) after 6 weeks of treatment were in particular concerned with: • The measurement of weight; • Measuring glycemia; • Measuring of insulinemia; • Measuring of serum triglycerides.

[3] = system: db/db mice; experiment: Fasting glycemia in db/db mice after 6 weeks of treatment; conditions: for effect on fasting glycemia (in words): db/db mice, after 6 weeks of treatment, versus CONTROL; for Fasting glycemia after 6 weeks of treatment: male db/db mice, fasted 6 h, compositions in the diet, mean values ± SEM
Protocol: as §1, §2, §3, §4, §5
The synergistic effect on fasting glycemia was evaluated according to the Colby SR method described in “Calculation of the synergistic and antagonistic responses of herbicide combinations” Weeds, 1967, 15:20-22. A factor>1 indicates the existence of a synergistic effect. A factor<1 indicates the existence of an antagonist.
V63X54 represents the percent change in glycemia for the V63X54 group compared to the CONTROL group.

Row | SMILES | reduction of blood triglyceride levels ([1]; db/db mice, after 6 weeks of treatment, versus CONTROL) [%] | Serum triglycerides after 6 weeks of treatment ([1]; male db/db mice, fasted 6 h, compositions in the diet, mean values ± SEM) [mg/dL] | Median values of insulinemia after 6 weeks of treatment [2] [ng/mL] | effect on fasting glycemia (in words) [3] | Fasting glycemia after 6 weeks of treatment [3] | median insulinemia compared with CONTROL (in words) [2]
1 | CN(C)C(=N)N=C(N)N [MET, metformin, reference compound] | 35.6 | 132.6 ± 7.4 | 21.89 | no effect | 454 mg/dL and 454 ± 34 mg/dL | 
2 | O=C(/C=C/c1ccc(O)c(O)c1)O[C@@H]1C[C@](O)(C(=O)O)C[C@@H](O)[C@H]1O [V63X35, (1S,3R,4R,5R)-3-{[(2E)-3-(3,4-dihydroxyphenyl)-2-propenoyl]oxy}-1,4,5-trihydroxycyclohexanecarboxylic acid] |  |  | 22.39 | no effect | 454 ± 34 mg/dL | no difference
3 | C/C=C1/[C@H](O[C@@H]2O[C@H](CO)[C@@H](O)[C@H](O)[C@H]2O)OC=C(C(=O)OC)[C@H]1CC(=O)OCCc1ccc(O)c(O)c1 [V63X54, methyl (2S,3E,4S)-4-{2-[2-(3,4-dihydroxyphenyl)ethoxy]-2-oxoethyl}-3-ethylidene-2-(β-D-glucopyranosyloxy)-3,4-dihydro-2H-pyran-5-carboxylate] |  |  | 25.44 | no effect | 432 ± 27 mg/dL | no difference
